Laboratory results from PubChem BioAssay (NCI).
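GI50: concentration for 50% inhibition of growth. Definition used: TGI = concentration required for complete inhibition of growth.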

Legend:
Assay in all cases: inhibition of tumour cell growth, NCI panel, 384-well format
[1] = tested on: NCI-H226 lung
[2] = tested on: A549 NSCLC
[3] = tested on: MDA-MB-468 breast
[4] = tested on: SNB-75 CNS
[5] = tested on: MOLT-4 leukemia
[6] = tested on: U251 glioblastoma
[7] = tested on: SN12C renal
[8] = tested on: OVCAR-4 ovarian
[9] = tested on: UACC-62 melanoma
[10] = tested on: PC-3 prostate
[11] = tested on: CCRF-CEM leukemia
[12] = tested on: BT-549 breast
[13] = tested on: SNB-19 CNS
[14] = tested on: NCI/ADR-RES ovarian
[15] = tested on: SF-539 CNS
[16] = tested on: SK-MEL-28 melanoma
[17] = tested on: RPMI-8226 leukemia
[18] = tested on: MCF7 breast
[19] = tested on: OVCAR-5 ovarian
[20] = tested on: KM12 colon
[21] = tested on: SF-268 CNS
[22] = tested on: MALME-3M melanoma
[23] = tested on: TK-10 renal
[24] = tested on: NCI-H23 lung
[25] = tested on: HL-60(TB) leukemia
[26] = tested on: A498 renal
[27] = tested on: HCT-116 colon
[28] = tested on: UO-31 renal
[29] = tested on: SW-620 colon
[30] = tested on: SF-295 CNS
[31] = tested on: M14 melanoma
[32] = tested on: EKVX NSCLC
[33] = tested on: RXF 393 renal
[34] = tested on: MDA-MB-435 melanoma
[35] = tested on: NCI-H322M lung
[36] = tested on: DU-145 prostate
[37] = tested on: SR leukemia
[38] = tested on: ACHN renal
[39] = tested on: COLO 205 colon
[40] = tested on: OVCAR-8 ovarian
[41] = tested on: CAKI-1 renal
[42] = tested on: K-562 leukemia
[43] = tested on: UACC-257 melanoma
[44] = tested on: OVCAR-3 ovarian
[45] = tested on: SK-MEL-5 melanoma
[46] = tested on: HCT-15 colon
[47] = tested on: SK-OV-3 ovarian
[48] = tested on: HCC-2998 colon
[49] = tested on: HT29 colon
[50] = tested on: HS 578T breast
[51] = tested on: MDA-MB-231 breast
[52] = tested on: LOX IMVI melanoma
[53] = tested on: 786-0 renal
[54] = tested on: T-47D breast
[55] = tested on: HOP-92 NSCLC
[56] = tested on: NCI-H460 NSCLC

O=C1Nc2c(C(F)(F)F)cccc2[C@@]1(c1ccc(O)cc1)c1ccc(OC(F)(F)F)cc1
GI50 [1]: 0.0108 µM | TGI [1]: 0.0276 µM | GI50 [2]: 0.0341 µM | TGI [2]: 0.148 µM | GI50 [3]: < 0.01 µM | TGI [3]: < 0.01 µM | GI50 [4]: < 0.01 µM | TGI [4]: < 0.01 µM | GI50 [5]: 10.4 µM | TGI [5]: 22.2 µM | GI50 [6]: 14.9 µM | TGI [6]: 28.2 µM | GI50 [7]: < 0.01 µM | TGI [7]: 0.0211 µM | GI50 [8]: < 0.01 µM | TGI [8]: < 0.01 µM | GI50 [9]: 0.0331 µM | TGI [9]: 5.96 µM | GI50 [10]: 0.0123 µM | TGI [10]: 0.0363 µM | GI50 [11]: 12.8 µM | TGI [11]: 25.5 µM | GI50 [12]: < 0.01 µM | TGI [12]: < 0.01 µM | GI50 [13]: 13.2 µM | TGI [13]: 26 µM | GI50 [14]: < 0.01 µM | TGI [14]: 0.0228 µM | GI50 [15]: 1.6 µM | TGI [15]: 13.7 µM | GI50 [16]: 12.4 µM | TGI [16]: 24.9 µM | GI50 [17]: 3.03 µM | TGI [17]: 9.54 µM | GI50 [18]: 0.0121 µM | TGI [18]: 0.0622 µM | GI50 [19]: 0.0503 µM | TGI [19]: 20.4 µM | GI50 [20]: 0.0145 µM | TGI [20]: 1.13 µM | GI50 [21]: 2.01 µM | TGI [21]: 18.1 µM | GI50 [22]: 8.37 µM | TGI [22]: 20.8 µM | GI50 [23]: < 0.01 µM | TGI [23]: < 0.01 µM | GI50 [24]: < 0.01 µM | TGI [24]: 0.0113 µM | GI50 [25]: 2.14 µM | TGI [25]: 3.78 µM | GI50 [26]: 0.022 µM | TGI [26]: 0.0619 µM | GI50 [27]: 0.0252 µM | TGI [27]: 16.9 µM | GI50 [28]: 0.0151 µM | TGI [28]: 0.0288 µM | GI50 [29]: 7.09 µM | TGI [29]: 19.4 µM | GI50 [30]: 0.0212 µM | TGI [30]: 0.0759 µM | GI50 [31]: 3.36 µM | TGI [31]: 17.2 µM | GI50 [32]: 0.017 µM | TGI [32]: 0.0551 µM | GI50 [33]: < 0.01 µM | TGI [33]: < 0.01 µM | GI50 [34]: 8.62 µM | TGI [34]: 20.9 µM | GI50 [35]: < 0.01 µM | TGI [35]: < 0.01 µM | GI50 [36]: 0.0313 µM | TGI [36]: 0.102 µM | GI50 [37]: 2.04 µM | TGI [37]: 4.15 µM | GI50 [38]: 0.0203 µM | TGI [38]: 0.047 µM | GI50 [39]: < 0.01 µM | TGI [39]: < 0.01 µM | GI50 [40]: < 0.01 µM | TGI [40]: < 0.01 µM | GI50 [41]: 12.9 µM | TGI [41]: 25.5 µM | GI50 [42]: 0.974 µM | TGI [42]: 17.7 µM | GI50 [43]: 12 µM | TGI [43]: 24.4 µM | GI50 [44]: < 0.01 µM | TGI [44]: 0.017 µM | GI50 [45]: 10.9 µM | TGI [45]: 22.9 µM | GI50 [46]: 0.0186 µM | TGI [46]: 15.2 µM | GI50 [47]: 0.0584 µM | TGI [47]: 13.8 µM | GI50 [48]: < 0.01 µM | TGI [48]: 0.0415 µM | GI50 [49]: 12.9 µM | TGI [49]: 25.7 µM | GI50 [50]: < 0.01 µM | TGI [50]: < 0.01 µM | GI50 [51]: 3.86 µM | TGI [51]: 18.9 µM | GI50 [52]: 0.0118 µM | TGI [52]: 0.0263 µM | GI50 [53]: 15.3 µM | TGI [53]: 28.7 µM | GI50 [54]: < 0.01 µM | TGI [54]: < 0.01 µM | GI50 [55]: 0.0443 µM | TGI [55]: 20.6 µM | GI50 [56]: 13.7 µM | TGI [56]: 27.1 µM
